In patent publication US8519127B2, “Cyclic glycyl-2-allyl proline and its use in treatment of peripheral neuropathy” (priority 2003, dated 2013):

Columns and labels:
cerebellar neurons = assay: Cerebellar microexplants exposed to glutamate and 3-nitropropionic acid; live neurons with neurites counted; type: cell-based, rat; settings: for number of cells having neurites: administered simultaneously with glutamate, FIG. 1 / FIG. 2; for glutamate-induced neurotoxicity: low doses (cG-2AllylP: 100 pm to 10 nm)
Method: Cover slips were placed into a large Petri dish and washed in 70% alcohol for 5 minutes, then washed with Millipore H2O. The cover slips were air dried, and coated with Poly-D-Lysine (1 mg/ml stock solution in PBS, 90-100 μl) for 2 hours at 34° C.
Postnatal day 8 Wistar rats were used for the study. The rats were sacrificed and placed in ice for 1 minute, decapitated and the cerebellum removed and placed on ice. Cerebellum tissue was placed in 1 ml of 0.65% glucose-supplemented PBS (10 μl 65% stock D (+)glucose/1 ml PBS) in a large Petri dish, chopped up into smaller sections and triturated with a 1 ml insulin syringe via a 23 G (0.4 mm) needle, and then squirted back into the glucose solution in the large Petri dish. The tissue was sieved through (125 μm pore size gauze) and centrifuged (2 minutes at 60 g) twice to exchange the medium into serum-free BSA-supplemented START V medium (Biochrom, Germany). The second centrifugation step was done with 1 ml of START V medium. The microexplants were reconstituted into 500 μl of START V medium and put on ice.
Two hours after PDL-coating, the slides were washed with Millipore H2O and air dried. Each slide was placed into a small Petri dish (diameter: 35 mm) and 40 μl of START V/cell suspension was added. The tissue was incubated for 2 hours at 34° C. (settlement period). START V-medium (1 ml) was then added to the Petri dish and cultivated at 34° C. in the presence of 5% CO2 in air at 100% humidity for 48 hours.
For the study, certain explant cultures were exposed to vehicle (PBS) only. In the first study (Study 1) 10 μl of toxin 1 (L-glutamate-100 mM in Millipore water; final concentration: 1 mM) and 10 μl of toxin 2 (3-nitropropionic acid-50 mM-pH 7-in Millipore water, final concentration: 0.5 mM) was applied simultaneously with the drug to be tested ([…]). In each case, the drugs were left in contact with the explants for the duration of the study.
After explants were exposed to drugs for the study period, cells were then rinsed in PBS and then fixed in increasing concentrations of paraformaldehyde (500 μl of 0.4% PFA was applied; then 1.2% PFA; then 3% PFA and finally 4% PFA (each fixation step: 2-3 minutes). Finally, the microexplants were rinsed in PBS.
Neurons in the explants were then evaluated for morphology (presence of neurites) and counted as live cells per microscopic field. Four fields displaying highest cell density were counted per cover slip and the data presented as mean±standard error of the mean (SEM); n=4 each. Statistical significance was evaluated by using the non-paired Student's t-test.

[1] = tested on: rats exposed to hypoxic-ischemic injury (HI); assay: Hypoxic-ischemic injury (modified Levine model), histological tissue damage score; type: in vivo, rat
Method: To determine whether cG-2AllylP might prevent neuronal injury in response to stroke, cardiac arterial bypass graft surgery (CABG) or other hypoxic insults, a series of studies were carried out in rats that had been exposed to hypoxic-ischemic injury (HI). Adult rats (Wistar, 280-310 g, male) were used. The modified Levine model preparation and experimental procedures were used (Rice et al, 1981, Ann. Neural.: 9: 131-141; Guan et al J., 1993, Cereb. Blood Flow Metab.: 13(4): 609-16). These procedures in brief, consist of an HI injury induced by unilateral carotid artery ligation followed by inhalational asphyxia in the animals with an implanted lateral ventricular cannula. A guide cannula was stereotaxically placed on the top of the dura 1.5 mm to the right of the mid-line and 7.5 mm anterior to the interaural zero plane under halothane anaesthesia. The right carotid artery was double ligated two days after the cannulation. After 1 hour recovery from the anaesthesia, each of the rats were placed in an incubator where the humidity (90±5%) and temperature (31°±0.5° C.) were controlled for another hour, then exposed to hypoxia (6% oxygen) for 10 min, The animals were kept in the incubator for an additional 2 hours before treatment.
Nine pairs of rats were treated intracerebral ventricularly (icy) with either cG-2AllylP (2 ng) or its vehicle (normal saline) 2 hours after hypoxic-ischemic insult. Rats in each group were simultaneously infused with cG-2AllylP or its vehicle under light anaesthesia (1.5% halothane) 2 hours after the insult. […]
Coronal sections 8 μm in thickness were cut from the striatum, cerebral cortex and hippocampus and were stained with thionin and acid fuchsin. The histological outcome was assessed at three levels: (1) the mid level of the striatum, (2) where the completed hippocampus first appeared and (3) the level where the ventral horn of the hippocampus just appears. The severity of tissue damage was scored in the striatum, cortex and the CA1-2, CA3, CA4 and dentate gyrus of the hippocampus. […]

[2] = tested on: pyridoxine-intoxicated rats; assay: Pyridoxine-induced peripheral neuropathy: body weight and beam walk errors; type: in vivo, rat; settings: for body weight (percentage of baseline weight): pyridoxine 400 mg/kg i.p. b.i.d. days 1-8, vs vehicle, FIG. 5
Method: […] Sprague-Dawley rats were habituated to walk across a wooden beam (4 cm diameter, 175 cm long, circular cross-section) over a training period of 8 days prior to initiating neuropathic toxicity treatment. Animals were weighed on the day prior to pyridoxine injection (mean body weight 270 g) and were randomized into treatment groups as follows: vehicle control (distilled water, n=16), 3 mg/kg cG-2-allylP (n=16) or 30 mg/kg cG-2-allylP (n=16). All groups received pyridoxine (400 mg/kg i.p.) 2/day for 8 days (days 1-8) and either vehicle or cG-2-allylP (3 or 30 mg/kg, p.o.) 1/day on days 1-10. Body weights were monitored throughout treatment and until study day 28. Beam walking was assessed on days 0 (baseline), 14, 21, and 28. Beam walk errors were assessed according to the method of Callizot (Callizot et al, Pyridoxine-Induced Neuropathy in Rats: a Sensory neuropathy that Responds to 4-methylcatechol, Neurobiol. Dis. 8:626-635 (2001.)) incorporated herein fully by reference. Each rat was scored for 7 steps taken in traversing the beam, as follows: 1=hind-paw placed on the top of the beam (normal); 2=paw contacted the lateral line of the beam; 3=paw overlapping the lateral line on the beam; 4=rat unable to place its feet on the beam. Rats that could walk across the beam therefore recorded a maximum functional deficit score of 28. Rats unable to take 7 steps along the beam scored 30, while rats unable to balance on the beam at all scored 32.
Two-way analysis of variance (ANOVA) was conducted on beam walk performance data, with time and treatment as variables, applying Bonferroni post-hoc tests to assess individual treatment condition differences. Statistical significance was assumed if p<0.05.

diabetic rats = assay: Streptozotocin-induced diabetic neuropathy, tactile allodynia (von Frey hairs); type: in vivo, rat; settings: 3-30 mg/kg p.o. 1/day for 14 days; STZ-diabetic rats
Method: Rats (225-250 g) are rendered diabetic by an i.p. injection of streptozotocin (STZ; 75 mg/kg). A diabetic condition is confirmed in each rat 10 days later by measurement of tail vein blood glucose levels. Only rats with a final blood glucose level>13.8 mM are considered diabetic and are included in the experiment.
Hyperglycemic, diabetic rats are dosed with cG-2-allylP (3-30 mg/kg, p.o. 1/day) from day 14 until day 28 (for a total of 14 days of treatment). Glucose measurements are taken on day 14 (pre-dose), day 21, day 28 and day 42.
Rats are tested for tactile allodynia on days 14 (pre-dose), and on days 16, 21, 28, 35 and 42 using van Frey hairs. Rats are tested for responsivity to von Frey hairs with calibrated bending forces of 1.5-15 g, to deliver punctate mechanical stimuli of varying intensities. Filaments exerting a force above 15 g are not used. Starting with the lowest filament force (1.5 g), von Frey hairs are applied to the plantar surface of the hind paw, with sufficient force to cause slight bending against the paw, and held for 1 s. Each stimulation is applied five times with an inter-stimulus interval of 5-10 s. Care is taken to stimulate random locations on the plantar surface. A positive response is noted if the paw was robustly and immediately withdrawn. […]

[3] = tested on: cleaved caspase-3 protein; settings: rats exposed to hypoxia/ischaemia; cited from earlier work
microglia = settings: response to hypoxia-ischemia in rat model; cited from earlier work

Row | SMILES | number of cells having neurites (cerebellar neurons) | glutamate-induced neurotoxicity (cerebellar neurons) | loss of cerebellar neurons having neurites (cerebellar neurons; glutamate 1 mM, compared to vehicle-treated controls, FIG. 1) [%] | tissue damage score ([1]; 2 ng icv 2 hours after hypoxic-ischemic insult, histology 5 days after injury, vs vehicle, p<0.001, FIG. 3) | neuronal damage scores ([1]; 2, 4, 20, 100 ng icv 2 hours after insult, all sites and doses other than 100 ng in striatum, FIG. 4) | efficacy by brain region ([1]; regions with progressive injury such as dentate gyrus and cerebral cortex, FIG. 4) | body weight (percentage of baseline weight) ([2]; 3 mg/kg p.o. 1/day days 1-10) | body weight (percentage of baseline weight) ([2]; 3 mg/kg p.o. 1/day days 1-10, listed as cG-2allylP) | body weight (percentage of baseline weight) ([2]; 30 mg/kg p.o. 1/day days 1-10) | body weight (percentage of baseline weight) ([2]; 30 mg/kg p.o. 1/day days 1-10, listed as cG-2allylP) | beam walking errors ([2]; 30 mg/kg p.o. days 1-10, test days 14, 21, 28, p<0.05 vs vehicle, FIG. 6) | pain threshold in response to von Frey hair pressure to hind paws (diabetic rats) | expression of cleaved caspase-3 protein in the cerebral cortex [3] | activation of microglia (microglia)
1 | C[C@@]12CCCN1C(=O)C1(CCCC1)NC2=O [Cyclic cyclopentyl-G-2MeP, (8aS)-Methyl-spiro[cyclopentane-1,3(4H)-tetrahydropyrrolo[1,2-a]pyrazine]-1,4(2H)-dione] | significantly increased the number of cells having neurites | significant decrease in glutamate-induced neurotoxicity | – | – | – | – | – | – | – | – | – | – | – | –
2 | N[C@@H](CCC(=O)O)C(=O)O [Glutamate, L-glutamate, reference compound] | – | – | ~85 | – | – | – | – | – | – | – | – | – | – | –
3 | C=CC[C@]12CCCN1C(=O)CNC2=O [cG-2-allylP, (8aS)-Allyl-hexahydropyrrolo[1,2-a]pyrazine-1,4-dione] | significantly increased the numbers of cells having neurites in a dose-dependent manner | significant decrease in glutamate-induced neurotoxicity | – | significantly reduced the tissue damage in each brain region examined | lessened the neural damage effects of hypoxia/ischemia | increased efficacy in brain regions that experienced progressive injury associated with delayed cell death | significantly attenuated the effect of pyridoxine on body weight on test day 9 | greater gain of body weight than in animals treated with pyridoxine alone | significantly attenuate pyridoxine-mediated body weight loss on days 9, 14, 21 and 28 | greater gain of body weight than in animals treated with pyridoxine alone | effectively prevented pyridoxine-induced beam walking errors | increase the pain threshold | decreased expression of cleaved caspase-3 protein in the cerebral cortex | reduce activation of microglia
